Experimental data taken from ChEMBL document CHEMBL1201862, “PubChem BioAssay data set” (2004).
Active and inactive are the calls of the source.

Key:
[1] = THP-1 cell cytotoxicity, dose response, cytotoxicity control for non-replicating M. tuberculosis project (AID 489025); assay type: functional
[2] = Vero E6 cell cytotoxicity, dose response, cytotoxicity control for non-replicating M. tuberculosis project, secondary assay (AID 492998); assay type: functional, VeroE6; conditions: Vero C1008
cells [3] = assay type: functional
[4] = target: SWI/SNF-related matrix-associated actin-dependent regulator of chromatin subfamily A member 2 (Homo sapiens, UniProt P51531); assay: Luminescence-based cell-based high throughput dose response assay to identify activators of the function of SWI/SNF related, matrix associated, actin dependent regulator of chromatin, subfamily a, member 2 (SMARCA2, BRM).; assay type: functional
[5] = Counterscreen for activators of the function of SWI/SNF related, matrix associated, actin dependent regulator of chromatin, subfamily a, member 2 (SMARCA2, BRM): Luminescence-based cell-based high throughput dose response assay to identify non-selective compounds using the VP16 reporter assay.; assay type: functional
SUMO E1/E2 = SUMO E1/E2 (Homo sapiens, UniProt P63279+Q9UBE0+Q9UBT2); assay: SAR analysis of SUMOylation using HTRF in an in-Vitro dose response assay. [Related pubchem assays (depositor defined):AID2006, AID2011, AID2018, AID2069, AID2658]; assay type: functional
Exodeoxyribonuclease V = target: T1, Exodeoxyribonuclease V (Escherichia coli (strain K12), UniProt P04993+P07648+P08394); assay: RecBCD inhibition via phage-restricted bacterial growth – absorbance, V66 E. coli, mutant T4 phage, counter-screen for AddAB inhibitor project, dose response (AID 492957); assay type: functional, cell-based, Escherichia coli str. K-12 substr. MG1655
T1 sequence (P04993 whole entry): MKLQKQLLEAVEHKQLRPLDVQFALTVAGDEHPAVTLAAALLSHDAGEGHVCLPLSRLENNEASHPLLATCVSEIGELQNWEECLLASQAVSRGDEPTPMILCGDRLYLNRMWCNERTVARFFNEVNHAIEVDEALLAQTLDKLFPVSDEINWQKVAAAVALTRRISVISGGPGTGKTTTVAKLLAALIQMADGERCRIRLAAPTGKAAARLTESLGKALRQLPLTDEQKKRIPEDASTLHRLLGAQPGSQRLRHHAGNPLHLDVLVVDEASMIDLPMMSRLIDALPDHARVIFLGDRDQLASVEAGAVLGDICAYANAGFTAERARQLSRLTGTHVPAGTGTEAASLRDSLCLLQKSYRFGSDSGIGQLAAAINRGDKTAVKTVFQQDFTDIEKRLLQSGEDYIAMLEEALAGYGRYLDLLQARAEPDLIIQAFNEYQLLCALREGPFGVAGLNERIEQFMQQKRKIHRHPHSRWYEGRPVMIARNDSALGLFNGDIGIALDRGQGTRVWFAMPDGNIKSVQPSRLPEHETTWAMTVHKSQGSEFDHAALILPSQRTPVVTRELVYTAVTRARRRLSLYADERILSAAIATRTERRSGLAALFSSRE
T1 sequence (P07648 whole entry): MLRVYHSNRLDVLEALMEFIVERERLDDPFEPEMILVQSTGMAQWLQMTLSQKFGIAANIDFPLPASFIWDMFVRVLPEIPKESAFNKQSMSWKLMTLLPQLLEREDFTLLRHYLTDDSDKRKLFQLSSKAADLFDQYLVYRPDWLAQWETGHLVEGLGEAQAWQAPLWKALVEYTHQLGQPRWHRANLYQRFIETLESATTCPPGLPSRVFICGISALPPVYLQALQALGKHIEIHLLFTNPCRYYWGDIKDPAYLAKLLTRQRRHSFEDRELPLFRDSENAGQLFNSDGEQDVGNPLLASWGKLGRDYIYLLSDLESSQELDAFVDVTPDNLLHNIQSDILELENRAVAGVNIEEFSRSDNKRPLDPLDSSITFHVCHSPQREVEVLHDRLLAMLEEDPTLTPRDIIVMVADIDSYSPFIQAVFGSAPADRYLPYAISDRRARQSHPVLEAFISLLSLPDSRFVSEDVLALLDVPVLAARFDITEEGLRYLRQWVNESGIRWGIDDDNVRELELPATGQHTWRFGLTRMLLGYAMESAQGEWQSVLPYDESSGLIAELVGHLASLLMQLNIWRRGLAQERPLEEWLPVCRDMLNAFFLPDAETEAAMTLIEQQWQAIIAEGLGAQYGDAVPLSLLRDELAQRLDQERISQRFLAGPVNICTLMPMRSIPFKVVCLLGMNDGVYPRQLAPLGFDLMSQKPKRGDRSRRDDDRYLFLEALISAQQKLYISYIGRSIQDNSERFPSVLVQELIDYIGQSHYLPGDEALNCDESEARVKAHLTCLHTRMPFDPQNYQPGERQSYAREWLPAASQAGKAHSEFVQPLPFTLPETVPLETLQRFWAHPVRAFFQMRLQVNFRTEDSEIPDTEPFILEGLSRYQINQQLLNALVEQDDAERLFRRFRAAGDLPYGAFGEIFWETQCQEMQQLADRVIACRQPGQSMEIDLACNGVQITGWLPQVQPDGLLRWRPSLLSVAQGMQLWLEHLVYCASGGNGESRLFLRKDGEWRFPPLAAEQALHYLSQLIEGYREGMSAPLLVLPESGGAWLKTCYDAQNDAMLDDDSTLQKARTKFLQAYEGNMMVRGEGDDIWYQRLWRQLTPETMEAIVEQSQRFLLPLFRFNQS
T1 sequence (P08394 whole entry): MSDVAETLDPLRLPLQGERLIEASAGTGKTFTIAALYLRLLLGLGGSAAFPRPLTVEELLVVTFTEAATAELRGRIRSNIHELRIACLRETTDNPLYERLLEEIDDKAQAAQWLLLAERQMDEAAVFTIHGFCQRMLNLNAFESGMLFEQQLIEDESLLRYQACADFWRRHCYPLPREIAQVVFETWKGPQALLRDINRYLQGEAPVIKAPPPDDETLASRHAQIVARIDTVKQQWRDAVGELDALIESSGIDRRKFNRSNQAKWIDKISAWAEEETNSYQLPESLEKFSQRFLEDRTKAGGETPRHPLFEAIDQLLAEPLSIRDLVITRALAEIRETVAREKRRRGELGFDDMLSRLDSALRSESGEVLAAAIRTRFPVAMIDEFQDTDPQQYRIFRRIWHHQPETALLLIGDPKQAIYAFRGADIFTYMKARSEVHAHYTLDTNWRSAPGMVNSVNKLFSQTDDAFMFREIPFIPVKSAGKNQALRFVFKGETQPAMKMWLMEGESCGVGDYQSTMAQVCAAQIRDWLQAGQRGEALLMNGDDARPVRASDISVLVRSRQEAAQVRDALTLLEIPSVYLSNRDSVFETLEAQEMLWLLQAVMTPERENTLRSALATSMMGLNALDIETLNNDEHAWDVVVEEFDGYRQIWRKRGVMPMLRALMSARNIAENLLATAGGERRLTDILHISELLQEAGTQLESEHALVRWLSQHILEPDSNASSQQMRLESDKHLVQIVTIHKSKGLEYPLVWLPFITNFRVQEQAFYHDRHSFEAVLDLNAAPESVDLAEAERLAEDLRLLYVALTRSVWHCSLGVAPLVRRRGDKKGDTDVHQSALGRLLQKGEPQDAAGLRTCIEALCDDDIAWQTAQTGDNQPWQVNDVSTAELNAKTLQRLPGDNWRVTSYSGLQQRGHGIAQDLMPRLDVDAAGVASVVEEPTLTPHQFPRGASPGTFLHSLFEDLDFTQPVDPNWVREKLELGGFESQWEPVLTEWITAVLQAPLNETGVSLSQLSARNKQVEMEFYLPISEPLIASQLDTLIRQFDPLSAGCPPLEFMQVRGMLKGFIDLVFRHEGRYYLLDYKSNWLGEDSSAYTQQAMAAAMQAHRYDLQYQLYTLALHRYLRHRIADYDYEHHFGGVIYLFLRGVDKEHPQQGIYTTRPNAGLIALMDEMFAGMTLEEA

[6] = Counterscreen for AddAB inhibitors: absorbance-based bacterial cell-based high throughput dose response assay for inhibitors of bacterial viability. [Related pubchem assays (depositor defined):AID435030, AID449728, AID449731, AID488942, AID488955, AID488956]; assay type: functional
[7] = luciferase reporter signal suppression in cells – H4 neuroglioma cells, luminescence, dose response (AID 1990); assay type: functional, cell-based
cells [8] = assay type: functional, cell-based
[9] = Luminescence Cell-Based Dose Response HTS to Identify Inhibitors of 5'UTR Stem-Loop Driven Prion Protein mRNA Translation in H4 Neuroglioblastoma Cells. [Related pubchem assays: 1827 (Project Summary), 1813 (Primary HTS)]; assay type: functional
[10] = alpha-synuclein stem-loop luciferase translation blockers – H4 neuroglioma cells, luminescence, confirmation (AID 1988); assay type: functional, cell-based
cells [11] = assay type: functional, cell-based; remark: listed apart in the source
[12] = target: Delta-type opioid receptor (Homo sapiens, UniProt P41143); assay: Counterscreen for agonists of heterodimerization of the mu 1 (OPRM1) and delta 1 (OPRD1) opioid receptors: Luminescence-based cell-based high throughput dose response assay to identify agonists of OPRD1 homodimerization. [Related pubchem assays (depositor defined):AID504326, AID504355, AID504692, AID504904, AID504905]; assay type: functional
Mu-type opioid receptor = Mu-type opioid receptor (Homo sapiens, UniProt P35372); assay: Counterscreen for agonists of heterodimerization of the mu 1 (OPRM1) and delta 1 (OPRD1) opioid receptors: Luminescence-based cell-based high throughput dose response assay to identify agonists of OPRM1 homodimerization.; assay type: functional;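 further: U2OS cells expressing OPRM1 and beta-arrestin as split beta-galactosidase partners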
[13] = target: 5-hydroxytryptamine receptor 5A (Homo sapiens, UniProt P47898); assay: Counterscreen for agonists of OPRM1-OPRD1 heterodimerization: luminescence-based cell-based high throughput dose response assay to identify agonists of 5-hydroxytryptamine (serotonin) 5A receptor (HTR5A). [Related pubchem assays (depositor defined):AID504326, AID504355, AID504692, AID504904, AID504905]; assay type: functional
Cytochrome P450 3A4 = Cytochrome P450 3A4 (Homo sapiens, UniProt P08684);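 further: CYP3A4 tested as one member of a cytochrome P450 panel screen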
Cytochrome P450 2D6 = Cytochrome P450 2D6 (Homo sapiens, UniProt P10635);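 further: CYP2D6 member of a cytochrome P450 panel assay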
Cytochrome P450 2C9 = Cytochrome P450 2C9 (Homo sapiens, UniProt P11712)
HEK293 [14] = assay: cells; conditions: Homo sapiens
HEK293 [15] = assay: cells; conditions: Homo sapiens; remark: listed apart in the source
[16] = Trypanosoma cruzi growth suppression in host cells – NIH3T3 host cells, beta-gal luminescence, confirmation (AID 2044); assay type: functional, cell-based;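 further: intracellular parasites grown in NIH/3T3 mouse fibroblasts as host cells; luminescent beta-galactosidase reporter signal from transgenic T. cruzi replicating inside host cells; inhibitors lower the luminescence signal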
[17] = NIH3T3 cell viability loss – ATP luminescence, mouse fibroblasts, counter-screen, dose response (AID 2010); assay type: functional, cell-based;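 further: cells exposed to compound for about 90 hours before reading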
INS1 = assay: INS-1E survival protection against cytokine death – cell-based, luminescence, retest, dose response (AID 449756); assay type: functional; conditions: Rattus norvegicus;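 further: cell death triggered by IL-1 beta plus TNF-alpha plus IFN-gamma mixture; protective hits raise ATP signal compared with cytokine alone wells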
Cytochrome P450 2C19 = Cytochrome P450 2C19 (Homo sapiens, UniProt P33261); assay: Cytochrome panel assay with activity outcomes. Panel member name: p450-cyp2c19 Compounds with AC50 equal or less than 10 uM are considered active; assay type: functional; conditions: read-out: AC50
Chain of Cytochrome P450 2C19 (P33261 whole entry): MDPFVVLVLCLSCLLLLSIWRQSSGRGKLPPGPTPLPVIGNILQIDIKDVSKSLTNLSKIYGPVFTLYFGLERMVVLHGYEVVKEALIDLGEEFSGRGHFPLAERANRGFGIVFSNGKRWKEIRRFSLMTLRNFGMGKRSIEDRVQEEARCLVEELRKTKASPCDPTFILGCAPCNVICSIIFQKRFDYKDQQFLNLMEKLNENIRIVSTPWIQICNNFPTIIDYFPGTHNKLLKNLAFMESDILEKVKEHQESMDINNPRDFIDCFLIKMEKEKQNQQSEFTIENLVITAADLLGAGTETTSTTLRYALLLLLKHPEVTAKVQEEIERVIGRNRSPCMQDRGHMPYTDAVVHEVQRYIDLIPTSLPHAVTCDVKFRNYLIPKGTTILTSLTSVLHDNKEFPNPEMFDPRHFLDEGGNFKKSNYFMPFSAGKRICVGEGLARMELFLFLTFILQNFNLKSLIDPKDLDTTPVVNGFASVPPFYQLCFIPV

Chain of Cytochrome P450 2D6 (P10635 whole entry): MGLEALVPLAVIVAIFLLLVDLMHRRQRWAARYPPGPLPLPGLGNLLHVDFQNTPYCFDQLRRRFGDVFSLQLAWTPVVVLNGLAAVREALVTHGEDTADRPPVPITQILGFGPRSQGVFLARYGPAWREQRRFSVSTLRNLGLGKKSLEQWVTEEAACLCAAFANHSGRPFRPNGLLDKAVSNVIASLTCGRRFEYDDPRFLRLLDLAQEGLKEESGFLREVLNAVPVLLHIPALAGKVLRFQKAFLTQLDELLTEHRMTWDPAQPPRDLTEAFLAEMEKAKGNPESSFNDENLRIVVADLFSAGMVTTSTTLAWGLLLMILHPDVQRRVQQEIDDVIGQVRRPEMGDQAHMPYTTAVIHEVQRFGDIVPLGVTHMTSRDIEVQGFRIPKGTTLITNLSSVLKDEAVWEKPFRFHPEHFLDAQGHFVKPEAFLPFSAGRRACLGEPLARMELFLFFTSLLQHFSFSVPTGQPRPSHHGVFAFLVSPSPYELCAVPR
Chain of SUMO E1/E2 (Q9UBE0 whole entry): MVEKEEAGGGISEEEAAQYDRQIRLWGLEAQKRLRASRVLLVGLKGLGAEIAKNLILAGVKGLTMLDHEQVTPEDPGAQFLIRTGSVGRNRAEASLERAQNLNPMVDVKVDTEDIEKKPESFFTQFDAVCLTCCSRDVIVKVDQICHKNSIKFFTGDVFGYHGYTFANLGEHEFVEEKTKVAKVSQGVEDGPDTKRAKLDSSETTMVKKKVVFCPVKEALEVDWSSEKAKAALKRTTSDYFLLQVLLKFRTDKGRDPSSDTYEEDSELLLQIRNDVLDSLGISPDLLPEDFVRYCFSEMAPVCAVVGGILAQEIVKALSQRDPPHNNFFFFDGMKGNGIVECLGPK
Chain of SUMO E1/E2 (Q9UBT2 whole entry): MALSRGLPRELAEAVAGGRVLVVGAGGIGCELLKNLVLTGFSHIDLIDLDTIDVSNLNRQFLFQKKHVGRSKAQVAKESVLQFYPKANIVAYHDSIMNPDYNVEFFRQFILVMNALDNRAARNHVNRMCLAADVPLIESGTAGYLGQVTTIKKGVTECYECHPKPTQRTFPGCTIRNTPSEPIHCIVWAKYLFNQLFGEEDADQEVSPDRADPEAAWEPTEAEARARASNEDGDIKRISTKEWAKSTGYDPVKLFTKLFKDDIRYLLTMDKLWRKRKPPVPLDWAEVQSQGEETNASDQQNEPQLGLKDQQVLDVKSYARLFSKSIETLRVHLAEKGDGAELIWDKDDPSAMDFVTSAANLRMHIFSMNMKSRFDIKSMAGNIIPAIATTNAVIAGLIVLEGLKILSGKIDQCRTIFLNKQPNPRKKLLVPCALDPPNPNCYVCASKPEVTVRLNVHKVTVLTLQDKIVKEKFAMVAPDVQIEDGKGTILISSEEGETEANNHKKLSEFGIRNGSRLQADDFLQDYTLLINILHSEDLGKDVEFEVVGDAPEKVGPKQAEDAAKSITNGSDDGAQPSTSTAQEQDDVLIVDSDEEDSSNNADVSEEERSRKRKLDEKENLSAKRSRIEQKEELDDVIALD
Chain of SUMO E1/E2 (P63279 whole entry): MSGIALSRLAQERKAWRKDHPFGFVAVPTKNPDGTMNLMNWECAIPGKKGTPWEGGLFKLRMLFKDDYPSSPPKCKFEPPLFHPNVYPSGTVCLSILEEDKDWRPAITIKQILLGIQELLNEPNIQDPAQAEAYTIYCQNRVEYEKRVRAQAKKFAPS
Chain of Cytochrome P450 3A4 (P08684 whole entry): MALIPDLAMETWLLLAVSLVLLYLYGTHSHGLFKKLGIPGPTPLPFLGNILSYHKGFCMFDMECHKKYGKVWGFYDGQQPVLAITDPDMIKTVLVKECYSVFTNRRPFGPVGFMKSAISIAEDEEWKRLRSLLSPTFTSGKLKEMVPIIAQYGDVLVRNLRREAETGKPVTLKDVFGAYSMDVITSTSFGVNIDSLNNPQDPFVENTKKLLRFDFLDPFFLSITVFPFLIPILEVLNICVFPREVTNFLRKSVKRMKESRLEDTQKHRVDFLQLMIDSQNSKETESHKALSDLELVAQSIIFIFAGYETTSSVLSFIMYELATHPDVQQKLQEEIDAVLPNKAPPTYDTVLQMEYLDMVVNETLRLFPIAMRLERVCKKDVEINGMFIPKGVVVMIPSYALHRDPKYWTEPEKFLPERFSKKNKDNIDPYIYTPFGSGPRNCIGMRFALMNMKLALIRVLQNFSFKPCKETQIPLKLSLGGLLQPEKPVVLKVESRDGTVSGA
Chain of Delta-type opioid receptor (P41143 whole entry): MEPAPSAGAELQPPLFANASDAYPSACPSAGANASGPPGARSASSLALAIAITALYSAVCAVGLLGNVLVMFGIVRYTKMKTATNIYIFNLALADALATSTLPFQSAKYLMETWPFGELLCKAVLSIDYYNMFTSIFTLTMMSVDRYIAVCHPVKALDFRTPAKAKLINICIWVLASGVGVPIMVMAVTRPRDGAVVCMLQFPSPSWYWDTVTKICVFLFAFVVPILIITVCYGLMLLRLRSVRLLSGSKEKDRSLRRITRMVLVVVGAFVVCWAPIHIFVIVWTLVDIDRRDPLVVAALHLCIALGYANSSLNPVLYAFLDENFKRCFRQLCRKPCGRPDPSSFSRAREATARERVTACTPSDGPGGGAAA
Chain of SWI/SNF-related matrix-associated actin-dependent regulator of chromatin subfamily A member 2 (P51531 whole entry): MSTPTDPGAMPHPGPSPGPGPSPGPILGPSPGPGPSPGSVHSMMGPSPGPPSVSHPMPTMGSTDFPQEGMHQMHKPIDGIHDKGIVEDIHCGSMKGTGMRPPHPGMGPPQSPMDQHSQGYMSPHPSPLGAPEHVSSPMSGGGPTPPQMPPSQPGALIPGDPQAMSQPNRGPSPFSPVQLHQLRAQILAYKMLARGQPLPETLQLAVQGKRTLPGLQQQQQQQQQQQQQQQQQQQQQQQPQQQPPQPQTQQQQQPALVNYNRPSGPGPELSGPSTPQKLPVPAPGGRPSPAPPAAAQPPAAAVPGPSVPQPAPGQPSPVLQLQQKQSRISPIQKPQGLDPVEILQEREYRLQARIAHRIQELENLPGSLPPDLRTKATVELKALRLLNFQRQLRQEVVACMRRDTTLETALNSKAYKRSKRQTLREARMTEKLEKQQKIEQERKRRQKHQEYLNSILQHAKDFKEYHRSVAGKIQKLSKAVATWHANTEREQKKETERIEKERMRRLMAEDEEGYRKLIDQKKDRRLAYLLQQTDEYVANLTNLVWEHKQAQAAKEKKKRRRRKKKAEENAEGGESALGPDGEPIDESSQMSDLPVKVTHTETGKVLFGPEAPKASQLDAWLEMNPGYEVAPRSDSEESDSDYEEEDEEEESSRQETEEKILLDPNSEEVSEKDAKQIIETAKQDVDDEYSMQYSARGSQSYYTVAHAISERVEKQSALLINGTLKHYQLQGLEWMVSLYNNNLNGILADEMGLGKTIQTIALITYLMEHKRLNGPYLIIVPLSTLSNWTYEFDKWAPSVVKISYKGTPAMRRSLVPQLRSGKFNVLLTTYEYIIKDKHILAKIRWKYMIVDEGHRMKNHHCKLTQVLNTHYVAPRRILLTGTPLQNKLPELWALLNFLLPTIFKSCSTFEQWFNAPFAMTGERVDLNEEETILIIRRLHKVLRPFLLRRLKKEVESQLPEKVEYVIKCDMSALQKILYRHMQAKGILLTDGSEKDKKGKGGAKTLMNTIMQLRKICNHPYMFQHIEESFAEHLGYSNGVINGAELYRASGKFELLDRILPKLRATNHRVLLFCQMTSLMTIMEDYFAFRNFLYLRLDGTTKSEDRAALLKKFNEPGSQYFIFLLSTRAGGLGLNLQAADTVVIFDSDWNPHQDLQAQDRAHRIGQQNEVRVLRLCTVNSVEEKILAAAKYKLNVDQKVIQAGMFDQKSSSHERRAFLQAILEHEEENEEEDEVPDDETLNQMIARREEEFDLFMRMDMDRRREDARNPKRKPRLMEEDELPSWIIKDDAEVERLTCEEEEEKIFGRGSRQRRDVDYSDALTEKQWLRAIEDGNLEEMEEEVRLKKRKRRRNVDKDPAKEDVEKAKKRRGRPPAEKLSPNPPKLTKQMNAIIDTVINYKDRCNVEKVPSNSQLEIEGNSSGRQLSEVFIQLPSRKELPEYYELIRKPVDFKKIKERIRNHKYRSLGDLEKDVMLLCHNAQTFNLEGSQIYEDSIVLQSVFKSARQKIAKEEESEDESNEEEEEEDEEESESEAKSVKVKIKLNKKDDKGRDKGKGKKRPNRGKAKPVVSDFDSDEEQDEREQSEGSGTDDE
Chain of 5-hydroxytryptamine receptor 5A (P47898 whole entry): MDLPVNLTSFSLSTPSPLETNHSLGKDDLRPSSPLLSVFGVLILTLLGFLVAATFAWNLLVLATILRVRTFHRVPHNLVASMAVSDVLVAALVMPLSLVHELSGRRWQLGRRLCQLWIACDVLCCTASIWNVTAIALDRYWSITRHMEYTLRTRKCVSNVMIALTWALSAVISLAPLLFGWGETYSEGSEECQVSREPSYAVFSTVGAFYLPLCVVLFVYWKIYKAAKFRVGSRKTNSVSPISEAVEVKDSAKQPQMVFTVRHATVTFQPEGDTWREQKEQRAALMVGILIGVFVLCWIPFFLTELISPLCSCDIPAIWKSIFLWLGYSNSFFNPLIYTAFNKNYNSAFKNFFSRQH

CCS(=O)(=O)c1c([N+](=O)[O-])ncn1C
CC50 [1]: > 40 µM (active)
CC50 [2]: > 20 µM (active)
IC50 (cells [3]): 16.2 µM (active)
EC50 [4]: > 91.1 µM (inactive)
EC50 [5]: > 91.1 µM (inactive)

Cc1ccc(C=Nc2ccccc2C(N)=O)s1
IC50 (SUMO E1/E2): 22.2 µM (active)

O=C(NC(NC(=S)Nc1ccc(Cl)cc1)C(Cl)(Cl)Cl)c1ccco1 (stereo unspecified)
IC50 (Exodeoxyribonuclease V): > 119 µM (inactive)
IC50 [6]: > 119 µM (inactive)

Cc1c(Br)c([N+](=O)[O-])nn1C(C)C(=O)NCc1ccco1 (stereo unspecified)
IC50 (Exodeoxyribonuclease V): > 119 µM (inactive)
IC50 [6]: > 119 µM (inactive)

CC(=O)Nc1nc2ccccc2n1CCOc1ccccc1Cl
EC50 [7]: 16.7 µM (active)
EC50 (cells [8]): > 350 µM (not active)
EC50 [9]: > 120 µM (not active)
EC50 [10]: > 120 µM (not active)
EC50 (cells [11]): 56.5 µM (active)
CC50 [1]: > 40 µM (active)
CC50 [2]: 17.5 µM (active)
IC50 (cells [3]): 2.72 µM (active)

CCNS(=O)(=O)c1ccc(NC(=O)Nc2ccc3c(c2)OCO3)cc1
EC50 [12]: > 92.5 µM (inactive)
EC50 (Mu-type opioid receptor): 42.8 µM (inactive)
EC50 [13]: > 92.5 µM (inactive)

Fc1ccc(C2Nc3ccccc3C3C=CCC32)cc1 (stereo unspecified)
IC50 (SUMO E1/E2): > 100 µM (inactive)

CCOC(=O)c1c(C)c(C(=O)NCCN2CCOCC2)c(C)n1CC
AC50 (Cytochrome P450 3A4): 25.1 µM (inconclusive)
AC50 (Cytochrome P450 2D6): inconclusive
AC50 (Cytochrome P450 2C9): inconclusive

CN(C)C(=S)N=c1ssc(=S)n1Cc1ccco1
EC50 (HEK293 [14]): > 59.6 µM (inactive)
EC50 (HEK293 [15]): > 59.6 µM (inactive)

Cc1cc(N/N=C/c2ccc(O)cc2O)nc(-c2ccccc2O)n1
EC50 (cells [8]): > 350 µM (not active)
EC50 [16]: 1.16 µM (active)
EC50 (cells [11]): 8.62 µM (active)
EC50 [17]: 4.8 µM (active)
IC50 (Exodeoxyribonuclease V): > 119 µM (inactive)
IC50 [6]: > 119 µM (inactive)
AC50 (INS1): 0.734 µM (active)

NC(=O)/C(=N\O)c1ccccc1
AC50 (Cytochrome P450 2C19): 0.00562 µM (inconclusive)
AC50 (Cytochrome P450 2D6): inconclusive
